Measured values published in patent US20260193264A1, “BENZOYPARAZINE PYRAZINES AND THEIR USES” (FOGHORN THERAPEUTICS INC., priority 2022, published 2026).

Tests used:
[1] = biological target: T1, HiBiT-BRM fusion protein in stable HeLa cell line (Homo sapiens, UniProt P51531); assay: HiBiT-BRM cell-based degradation assay (Nano-Glo HiBiT Lytic Detection, 24 h); design: DC50: scale not given here; details: HeLa HiBiT-BRM cells; for DC50: read-out: BRM HiBit Degradation IC50; for BRM HiBit Degradation Maximum (%): top dose 30 μM
T1 construct: expressed in transfected cells
T1 sequence (P51531 whole entry, the tested form may be a part): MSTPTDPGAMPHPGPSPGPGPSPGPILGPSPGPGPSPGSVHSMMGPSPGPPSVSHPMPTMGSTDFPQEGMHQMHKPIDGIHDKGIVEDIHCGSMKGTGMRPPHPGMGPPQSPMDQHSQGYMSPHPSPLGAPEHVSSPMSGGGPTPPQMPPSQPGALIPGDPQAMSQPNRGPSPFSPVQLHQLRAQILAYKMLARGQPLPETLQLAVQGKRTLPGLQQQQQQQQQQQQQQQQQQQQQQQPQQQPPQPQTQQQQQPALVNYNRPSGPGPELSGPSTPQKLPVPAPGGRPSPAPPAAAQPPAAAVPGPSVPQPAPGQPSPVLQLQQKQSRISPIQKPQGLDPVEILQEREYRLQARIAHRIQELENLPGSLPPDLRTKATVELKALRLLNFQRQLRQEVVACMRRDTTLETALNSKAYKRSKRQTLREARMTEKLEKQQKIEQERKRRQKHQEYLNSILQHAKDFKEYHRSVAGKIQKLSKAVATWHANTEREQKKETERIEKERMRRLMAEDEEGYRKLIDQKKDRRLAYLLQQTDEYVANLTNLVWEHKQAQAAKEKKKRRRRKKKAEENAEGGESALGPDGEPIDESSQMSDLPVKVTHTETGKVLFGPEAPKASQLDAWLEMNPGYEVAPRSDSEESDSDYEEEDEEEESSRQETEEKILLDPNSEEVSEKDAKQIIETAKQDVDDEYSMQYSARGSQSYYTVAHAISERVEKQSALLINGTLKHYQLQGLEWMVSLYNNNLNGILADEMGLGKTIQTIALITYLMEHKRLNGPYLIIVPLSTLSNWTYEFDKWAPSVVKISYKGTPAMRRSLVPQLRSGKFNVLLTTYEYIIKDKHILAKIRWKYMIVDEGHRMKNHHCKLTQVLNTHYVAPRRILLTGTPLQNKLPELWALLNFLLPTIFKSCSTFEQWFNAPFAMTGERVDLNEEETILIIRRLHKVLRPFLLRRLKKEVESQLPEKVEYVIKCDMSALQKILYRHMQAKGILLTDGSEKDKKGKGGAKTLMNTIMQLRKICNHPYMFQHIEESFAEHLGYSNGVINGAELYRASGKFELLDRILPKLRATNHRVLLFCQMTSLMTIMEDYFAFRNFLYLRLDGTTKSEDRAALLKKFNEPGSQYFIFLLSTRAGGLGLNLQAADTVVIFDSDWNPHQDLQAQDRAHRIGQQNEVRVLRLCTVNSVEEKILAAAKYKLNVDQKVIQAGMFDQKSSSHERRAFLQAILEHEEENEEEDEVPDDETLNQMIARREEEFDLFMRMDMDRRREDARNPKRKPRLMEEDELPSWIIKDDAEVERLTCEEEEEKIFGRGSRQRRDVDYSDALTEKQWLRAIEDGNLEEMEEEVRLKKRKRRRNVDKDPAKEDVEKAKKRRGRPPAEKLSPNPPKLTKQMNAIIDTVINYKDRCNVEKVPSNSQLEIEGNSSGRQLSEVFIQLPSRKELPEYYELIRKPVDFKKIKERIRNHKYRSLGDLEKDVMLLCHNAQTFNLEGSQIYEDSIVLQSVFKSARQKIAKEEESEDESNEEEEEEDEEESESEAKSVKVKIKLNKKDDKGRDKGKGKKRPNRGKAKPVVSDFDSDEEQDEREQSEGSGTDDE
Summary of the method: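 Percent degradation was scaled between DMSO-treated cells and cells given 2 μM of a known BRM/BRG1 degrader. Readout was NanoBiT luminescence after lytic detection. HeLa cells stably expressing HiBiT-BRM were dosed for 24 h, 10 points, 3-fold steps from 30 μM final, in duplicate.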

[2] = biological target: T2, HiBit-BRG1 fusion protein in stable HeLa cell line expressing HiBit-BRG1 and LgBit (Homo sapiens, UniProt P51532); assay: HiBiT-BRG1 cell-based degradation assay (Nano-Glo HiBiT, 24 h); details: HeLa HiBit-BRG1/LgBit cells; for Dmax: top dose 30 μM, read-out: BRG1 HiBit Degradation Maximum (%); for DC50: read-out: BRMG1 HiBit Degradation IC50
T2 construct: expressed in transfected cells
T2 sequence (P51532 whole entry, the tested form may be a part): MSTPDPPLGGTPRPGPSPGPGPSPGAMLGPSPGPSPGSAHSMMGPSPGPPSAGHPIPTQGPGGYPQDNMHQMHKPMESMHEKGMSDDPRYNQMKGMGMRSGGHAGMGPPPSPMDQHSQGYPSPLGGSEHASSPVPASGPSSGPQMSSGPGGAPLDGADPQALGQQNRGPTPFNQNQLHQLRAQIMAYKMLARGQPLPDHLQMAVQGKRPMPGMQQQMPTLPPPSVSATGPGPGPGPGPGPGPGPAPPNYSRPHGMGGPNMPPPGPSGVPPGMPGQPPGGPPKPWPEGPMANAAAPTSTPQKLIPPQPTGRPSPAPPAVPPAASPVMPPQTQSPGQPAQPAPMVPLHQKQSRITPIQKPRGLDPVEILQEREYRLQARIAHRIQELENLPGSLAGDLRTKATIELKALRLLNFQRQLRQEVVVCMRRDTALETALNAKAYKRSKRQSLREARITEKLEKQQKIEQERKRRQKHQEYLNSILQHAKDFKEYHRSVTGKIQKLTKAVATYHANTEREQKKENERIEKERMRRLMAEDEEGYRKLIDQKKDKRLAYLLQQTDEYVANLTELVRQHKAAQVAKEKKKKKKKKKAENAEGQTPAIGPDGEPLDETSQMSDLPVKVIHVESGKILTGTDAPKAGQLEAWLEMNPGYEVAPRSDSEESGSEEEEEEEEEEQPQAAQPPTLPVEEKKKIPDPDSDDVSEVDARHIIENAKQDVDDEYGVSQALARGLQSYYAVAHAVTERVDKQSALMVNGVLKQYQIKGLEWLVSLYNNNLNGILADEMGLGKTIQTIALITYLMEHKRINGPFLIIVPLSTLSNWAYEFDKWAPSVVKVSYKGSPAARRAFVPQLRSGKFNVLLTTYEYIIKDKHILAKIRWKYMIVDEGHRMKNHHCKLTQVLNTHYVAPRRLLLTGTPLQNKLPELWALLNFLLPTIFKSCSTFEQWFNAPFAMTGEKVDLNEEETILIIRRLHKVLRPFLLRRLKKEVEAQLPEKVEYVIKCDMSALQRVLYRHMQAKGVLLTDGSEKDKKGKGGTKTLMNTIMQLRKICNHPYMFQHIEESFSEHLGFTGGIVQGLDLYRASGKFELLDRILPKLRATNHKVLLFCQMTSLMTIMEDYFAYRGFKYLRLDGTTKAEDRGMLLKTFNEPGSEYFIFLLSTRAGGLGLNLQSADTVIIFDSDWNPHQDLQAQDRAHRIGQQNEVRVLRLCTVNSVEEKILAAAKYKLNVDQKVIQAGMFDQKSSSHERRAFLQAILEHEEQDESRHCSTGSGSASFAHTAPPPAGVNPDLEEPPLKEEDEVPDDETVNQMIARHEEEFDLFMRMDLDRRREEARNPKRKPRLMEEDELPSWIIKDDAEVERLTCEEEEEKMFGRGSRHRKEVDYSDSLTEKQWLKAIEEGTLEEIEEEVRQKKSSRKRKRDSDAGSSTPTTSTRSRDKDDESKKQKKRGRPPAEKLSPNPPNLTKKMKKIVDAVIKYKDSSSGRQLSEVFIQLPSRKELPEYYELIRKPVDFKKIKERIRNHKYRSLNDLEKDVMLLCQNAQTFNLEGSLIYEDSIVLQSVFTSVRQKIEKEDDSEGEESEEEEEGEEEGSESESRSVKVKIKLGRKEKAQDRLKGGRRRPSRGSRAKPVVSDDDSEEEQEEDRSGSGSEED
Summary of the method: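 Degradation calculated from NanoBiT luminescence relative to DMSO-treated cells (high) and cells given 2 μM known BRM/BRG1 degrader (low). HeLa cells stably expressing HiBiT-BRG1 plus LgBiT were exposed to compound for 24 h before lytic HiBiT detection.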

Cc1ncsc1-c1ccc([C@H](C)NC(=O)[C@@H]2C[C@@H](O)CN2C(=O)[C@@H](c2cc(N3CCC4(CC3)CCN(c3ccc5cc(-c6ccccc6O)nnc5c3)C(=O)C4)no2)C(C)C)cc1 [Compound 103, (2S,4R)-4-hydroxy-1-((R)-2-(3-(9-(3-(2-hydroxyphenyl)cinnolin-7-yl)-8-oxo-3,9-diazaspiro[5.5]undecan-3-yl)isoxazol-5-yl)-3-methylbutanoyl)-N-((S)-1-(4-(4-methylthiazol-5-yl)phenyl)ethyl)pyrrolidine-2-carboxamide]
DC50 [1]: < 10 nM | BRM HiBit Degradation Maximum (%) [1]: A (“A” indicates maximum degradation ≥75%) | Dmax [2]: < 50%

Cc1ncsc1-c1ccc([C@H](C)NC(=O)[C@@H]2C[C@@H](O)CN2C(=O)[C@H](C(C)C)n2cnc(N3CC4(CN(c5ccc6cc(-c7ccccc7O)nnc6c5)C4)C3)c2)cc1 [Compound 271, (2S,4R)-4-hydroxy-1-((S)-2-(4-(6-(3-(2-hydroxyphenyl)cinnolin-7-yl)-2,6-diazaspiro[3.3]heptan-2-yl)-1H-imidazol-1-yl)-3-methylbutanoyl)-N-((S)-1-(4-(4-methylthiazol-5-yl)phenyl)ethyl)pyrrolidine-2-carboxamide]
DC50 [1]: > 10 nM | BRM HiBit Degradation Maximum (%) [1]: A (“A” indicates maximum degradation ≥75%) | Dmax [2]: < 50%

Cc1ncsc1-c1ccc([C@H](C)NC(=O)[C@@H]2C[C@@H](O)CN2C(=O)[C@@H](c2cc(N3C[C@@H]4[C@H](C3)[C@H]4c3ccc4cc(-c5ccccc5O)nnc4c3)no2)C(C)C)cc1 [Compound 59, (2S,4R)-4-hydroxy-1-((R)-2-(3-((1R,5S,6S)-6-(3-(2-hydroxyphenyl)cinnolin-7-yl)-3-azabicyclo[3.1.0]hexan-3-yl)isoxazol-5-yl)-3-methylbutanoyl)-N-((S)-1-(4-(4-methylthiazol-5-yl)phenyl)ethyl)pyrrolidine-2-carboxamide]
DC50 [1]: < 10 nM | BRM HiBit Degradation Maximum (%) [1]: A (“A” indicates maximum degradation ≥75%) | Dmax [2]: < 50%

C#Cc1ccc(CNC(=O)[C@@H]2C[C@@H](O)CN2C(=O)[C@H](C(C)C)n2cc(N3CC4(CN(c5ccc6cc(-c7ccccc7O)nnc6c5)C4)C3)nn2)c(OCCCOC)c1 [Compound 242, (2S,4R)-N-(4-ethynyl-2-(3-methoxypropoxy)benzyl)-4-hydroxy-1-((S)-2-(4-(6-(3-(2-hydroxyphenyl)cinnolin-7-yl)-2,6-diazaspiro[3.3]heptan-2-yl)-1H-1,2,3-triazol-1-yl)-3-methylbutanoyl)pyrrolidine-2-carboxamide]
DC50 [1]: < 10 nM | BRM HiBit Degradation Maximum (%) [1]: A (“A” indicates maximum degradation ≥75%) | DC50 [2]: < 10 nM | Dmax [2]: > 50%

Cc1ncsc1-c1ccc([C@H](C)NC(=O)[C@@H]2C[C@@H](O)CN2C(=O)C(C(C)C)n2cc(N3CCCC(CN4CCN(c5ccc6nnc(-c7ccccc7O)cc6c5)CC4)C3)nn2)cc1 (stereo partly drawn) [Compound 270, (2S,4R)-4-hydroxy-1-(2-(4-(3-((4-(3-(2-hydroxyphenyl)cinnolin-6-yl)piperazin-1-yl)methyl)piperidin-1-yl)-1H-1,2,3-triazol-1-yl)-3-methylbutanoyl)-N-((S)-1-(4-(4-methylthiazol-5-yl)phenyl)ethyl)pyrrolidine-2-carboxamide]
DC50 [1]: < 10 nM | BRM HiBit Degradation Maximum (%) [1]: A (“A” indicates maximum degradation ≥75%) | DC50 [2]: > 10 nM | Dmax [2]: > 75%

Cc1ncsc1-c1ccc([C@H](C)NC(=O)[C@@H]2C[C@@H](O)CN2C(=O)[C@@H](c2cc(N3CC4(CC(c5ccc6nnc(-c7ccccc7O)cc6c5)C4)C3)no2)C(C)C)cc1 [Compound 48, (2S,4R)-4-hydroxy-1-((R)-2-(3-(6-(3-(2-hydroxyphenyl)cinnolin-6-yl)-2-azaspiro[3.3]heptan-2-yl)isoxazol-5-yl)-3-methylbutanoyl)-N-((S)-1-(4-(4-methylthiazol-5-yl)phenyl)ethyl)pyrrolidine-2-carboxamide]
DC50 [1]: < 10 nM | BRM HiBit Degradation Maximum (%) [1]: A (“A” indicates maximum degradation ≥75%) | DC50 [2]: < 10 nM | Dmax [2]: > 75%

Cc1ncsc1-c1ccc([C@H](C)NC(=O)[C@@H]2C[C@@H](O)CN2C(=O)[C@@H](c2cc(N3CC4(C3)CN(c3cc5nnc(-c6ccccc6O)cc5cc3Cl)C4)no2)C(C)C)cc1 [Compound 157, (2S,4R)-1-((R)-2-(3-(6-(6-chloro-3-(2-hydroxyphenyl)cinnolin-7-yl)-2,6-diazaspiro[3.3]heptan-2-yl)isoxazol-5-yl)-3-methylbutanoyl)-4-hydroxy-N-((S)-1-(4-(4-methylthiazol-5-yl)phenyl)ethyl)pyrrolidine-2-carboxamide]
DC50 [1]: < 10 nM | BRM HiBit Degradation Maximum (%) [1]: A (“A” indicates maximum degradation ≥75%) | DC50 [2]: < 10 nM | Dmax [2]: > 50%

Cc1ncsc1-c1ccc([C@H](C)NC(=O)[C@@H]2C[C@@H](O)CN2C(=O)[C@@H](c2cc(N3CC4=C(CN(c5ccc6nnc(-c7ccccc7O)cc6c5)C4)C3)no2)C(C)C)cc1 [Compound 229, (2S,4R)-4-hydroxy-1-((R)-2-(3-(5-(3-(2-hydroxyphenyl)cinnolin-6-yl)-3,4,5,6-tetrahydropyrrolo[3,4-c]pyrrol-2(1H)-yl)isoxazol-5-yl)-3-methylbutanoyl)-N-((S)-1-(4-(4-methylthiazol-5-yl)phenyl)ethyl)pyrrolidine-2-carboxamide]
DC50 [1]: < 10 nM | BRM HiBit Degradation Maximum (%) [1]: A (“A” indicates maximum degradation ≥75%) | DC50 [2]: < 10 nM | Dmax [2]: > 75%

Cc1ncsc1-c1ccc([C@H](C)NC(=O)[C@@H]2C[C@@H](O)CN2C(=O)C(C(C)C)n2cc(N3CCC4(CC3)CCN4c3ccc4nnc(-c5ccccc5O)cc4c3)nn2)cc1 (stereo partly shown) [Compound 278]
DC50 [1]: < 10 nM | BRM HiBit Degradation Maximum (%) [1]: A (“A” indicates maximum degradation ≥75%) | DC50 [2]: > 10 nM | Dmax [2]: > 50%

Cc1ncsc1-c1ccc([C@H](C)NC(=O)[C@@H]2C[C@@H](O)CN2C(=O)[C@@H](c2cc(N3CCC4(CC[C@H](c5ccc6cc(-c7ccccc7O)nnc6c5)C4)CC3)no2)C(C)C)cc1 [Compound 92, (2S,4R)-4-hydroxy-1-((R)-2-(3-((S)-2-(3-(2-hydroxyphenyl)cinnolin-7-yl)-8-azaspiro[4.5]decan-8-yl)isoxazol-5-yl)-3-methylbutanoyl)-N-((S)-1-(4-(4-methylthiazol-5-yl)phenyl)ethyl)pyrrolidine-2-carboxamide]
DC50 [1]: < 10 nM | BRM HiBit Degradation Maximum (%) [1]: A (“A” indicates maximum degradation ≥75%) | DC50 [2]: > 10 nM | Dmax [2]: > 75%

Cc1ncsc1-c1ccc([C@H](C)NC(=O)[C@@H]2C[C@@H](O)CN2C(=O)[C@H](C(C)C)n2cc(-c3cc4cc(-c5ccccc5O)nnc4cc3C#N)nn2)cc1 [Compound 170, (2S,4R)-1-[(2S)-2-{4-[7-cyano-3-(2-hydroxyphenyl)cinnolin-6-yl]-1,2,3-triazol-1-yl}-3-methylbutanoyl]-4-hydroxy-N-[(1S)-1-[4-(4-methyl-1,3-thiazol-5-yl)phenyl]ethyl]pyrrolidine-2-carboxamide]
DC50 [1]: > 10 nM | BRM HiBit Degradation Maximum (%) [1]: B (“B” indicates maximum degradation ≥50%) | Dmax [2]: < 50%
